Reference: patent publication US20130310374A1, “Substituted Imidazoquinoline Derivatives” (PIRAMAL ENTERPRISES LIMITED`, priority 2010, published 2013)

What was measured:
[1] = test system: BT 549; assay: Cytotoxicity propidium iodide assay, BT 549; type: cell-based; conditions: Homo sapiens; BT 549 (breast), 48 hours treatment; read-out: IC50 Values in μM, C3c
Description: (§1) The assay was designed as in the reference, Anticancer Drugs, 2002, 13, 1-8, the disclosure of which is incorporated herein by reference for the teaching of the assay.
(§2) Cells from cell lines (ATCC) as mentioned in the table given below were seeded at a density of 3000 cells/well in a white opaque 96-well plate. Following incubation at 37° C./5% CO2 for a period of 18-24 hours, the cells were treated with various concentrations (stock solution was prepared in DMSO and subsequent dilutions were made in media as per ATCC guidelines) of the compounds of the present invention for a period of 48 hours. At the end of treatment, the culture medium was discarded, the cells were washed with 1×PBS and 200 μL of […] propidium iodide was added to each well. The plates were frozen at 70° C. overnight. For analysis, the plates were warmed to RT, allowed to thaw and were read in PoleStar fluorimeter with the fluorescence setting. The percentage of viable cells in the non-treated set of wells was considered to be 100 and the percentage viability following treatment was calculated accordingly. IC50 values were calculated from graphs plotted using these percentages. IC50 values for certain compounds of present invention are depicted in Table 1 and % Inhibition of certain compounds of present invention are depicted in Table 2.

[2] = test system: T315I; assay: Cytotoxicity propidium iodide assay, T315I; type: cell-based; conditions: T315I (CML), 48 hours treatment; read-out: IC50 Values in μM, C6b
Description: as §1, §2

[3] = test system: MDA MB 468; assay: Cytotoxicity propidium iodide assay, MDA MB 468; type: cell-based; conditions: Homo sapiens; MDA MB 468 (breast), 48 hours treatment; read-out: IC50 Values in μM, C3b
Description: as §1, §2

[4] = test system: PC3; assay: Cytotoxicity propidium iodide assay, PC3; type: cell-based, human; conditions: Homo sapiens, PC-3; PC3 (prostate), 48 hours treatment; read-out: IC50 Values in μM, C2a
How it was run: (§3)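 Cells seeded at 3000 cells/well, grown 18-24 h at 37° C./5% CO2, then exposed to graded compound concentrations for 48 h. After PBS wash, […] propidium iodide was added, plates frozen overnight, thawed and read by fluorescence. IC50 derived from viability relative to untreated wells (100%).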

[5] = test system: K562; assay: Cytotoxicity propidium iodide assay, K562; type: cell-based; conditions: Homo sapiens; K562 (CML), 48 hours treatment; read-out: IC50 Values in μM, C6a
Description: as §1, §2

[6] = test system: KCL22/SR; assay: Cytotoxicity propidium iodide assay, KCL22/SR; type: cell-based; conditions: Homo sapiens, KCL-22; KCL22/SR (CML), 48 hours treatment; read-out: IC50 Values in μM, C6e
Description: as §1, §2

[7] = test system: PANC 1; assay: Cytotoxicity propidium iodide assay, PANC 1; type: cell-based; conditions: Homo sapiens; PANC 1 (pancreatic), 48 hours treatment; read-out: IC50 Values in μM, C4a
Description: as §1, §2

[8] = test system: KU812/SR; assay: Cytotoxicity propidium iodide assay, KU812/SR; type: cell-based; conditions: Homo sapiens; KU812/SR (CML), 48 hours treatment; read-out: IC50 Values in μM, C6c
Description: as §1, §2

[9] = test system: KU812; assay: Cytotoxicity propidium iodide assay, KU812; type: cell-based; conditions: Homo sapiens; KU812 (CML), 48 hours treatment; read-out: IC50 Values in μM, C6d
Description: as §1, §2

[10] = test system: MCF7; assay: Cytotoxicity propidium iodide assay, MCF7; type: cell-based; conditions: Homo sapiens; MCF7 (breast), 48 hours treatment; read-out: IC50 Values in μM, C3d
Description: as §1, §2

[11] = test system: KCL22; assay: Cytotoxicity propidium iodide assay, KCL22; type: cell-based; conditions: Homo sapiens, KCL-22; KCL22 (CML), 48 hours treatment; read-out: IC50 Values in μM, C6f
Description: as §1
as §2, with “The plates were frozen at 70° C. overnight.” left out

[12] = test system: A2780; assay: Cytotoxicity propidium iodide assay, A2780; type: cell-based; conditions: Homo sapiens; A2780 (ovarian), 48 hours treatment; read-out: IC50 Values in μM, C1a
How it was run: as §3

[13] = test system: BxPC3; assay: Cytotoxicity propidium iodide assay, BxPC3; type: cell-based; conditions: Homo sapiens, BXPC-3; BxPC3 (pancreatic), 48 hours treatment; read-out: IC50 Values in μM, C4c
Description: as §1, §2

[14] = test system: MDA MB 231; assay: Cytotoxicity propidium iodide assay, MDA MB 231; type: cell-based; conditions: Homo sapiens; MDA MB 231 (breast), 48 hours treatment; read-out: IC50 Values in μM, C3a
Description: as §1
as §2, with “The plates were frozen at 70° C. overnight.” left out

[15] = test system: AsPC 1; assay: Cytotoxicity propidium iodide assay, AsPC 1; type: cell-based; conditions: Homo sapiens, ASPC1; AsPC 1 (pancreatic), 48 hours treatment; read-out: IC50 Values in μM, C4b
Description: as §1
as §2, with “The plates were frozen at 70° C. overnight.” left out

Compound | IC50 [1] | IC50 [2] | IC50 [3] | IC50 [4] | IC50 [5] | IC50 [6] | IC50 [7] | IC50 [8] | IC50 [9] | IC50 [10] | IC50 [11] | IC50 [12] | IC50 [13] | IC50 [14] | IC50 [15]
COc1ccc(-n2c(=O)n(C)c3cnc4ccc(-c5cnc6ccccc6c5)cc4c32)cn1 [Example 20, 1-(6-Methoxypyridin-3-yl)-3-methyl-8-(quinolin-3-yl)-1H-imidazo[4,5-c]quinolin-2(3H)-one] | 1 µM | 1.96 µM | 0.47 µM | 0.27 µM | 0.1 µM | 1.09 µM | 0.25 µM | 5.44 µM | 1.99 µM | 0.55 µM | 2.86 µM | 0.07 µM | 0.45 µM | 0.37 µM | 0.4 µM
Cn1c(=O)n(CCN2CCOCC2)c2c3cc(-c4cnc5ccccc5c4)ccc3ncc21 [Example 70, 3-Methyl-1-(2-morpholinoethyl)-8-(quinolin-3-yl)-1H-imidazo[4,5-c]quinolin-2(3H)-one] | 2.1 µM | 2.56 µM | 1.1 µM | 0.9 µM | 0.7 µM | 1.57 µM | 1 µM | 3.38 µM | 4 µM | 0.7 µM | 2.17 µM | 0.3 µM | 0.7 µM | 0.7 µM | 1.6 µM
